Laboratory results published in a melting point compilation (Tetko et al.).

Row | Compound | melting point [°C]
1 | Nc1ncc(Cc2ccc(Br)cc2)s1 | 129 to 131
2 | COc1ccc(C(N)=NO)c(OC)c1 | 129 to 131
3 | COC(=O)c1cc([N+](=O)[O-])cc(C)c1C | 72 to 74
4 | Cn1c(SCC(=O)O)nc2ccccc21 | 155 to 159
5 | O=[N+]([O-])c1ccc(O)nc1Cl | 199 to 201
6 | COC1(C(=O)O)CCN(C(=O)OC(C)(C)C)CC1 | 96 to 98
7 | CC(C)Cn1[nH]c(-c2ccccc2)cc1=N | 99 to 101
8 | CCNS(=O)(=O)c1ccc(Cl)nc1 | 73 to 75
9 | CCn1ccnc(Cl)c1=O | 52 to 54
10 | ClCc1cnc(-c2ccccc2)s1 | 57 to 59
11 | NNC(=O)CC1CC1 | 89 to 91
12 | O=C(O)c1ccc(Oc2cccc(F)c2[N+](=O)[O-])c(Cl)c1 | 169 to 171
13 | N#CC1(C(=O)O)CCC1 | 64 to 66
14 | O=C(O)C1CCN(c2cnccn2)CC1 | 149 to 151
15 | Clc1ccc(-n2cccn2)c(Cl)c1 | 34 to 36
16 | CCC1(c2ccc(O)cc2)NC(=O)NC1=O (centres undefined) | 279 to 281
17 | Nn1c(S)nnc1C1CCCO1 (centres undefined) | 143 to 147
18 | CC(C)CC1CC(C(=O)O)CC(=O)N1 (centres undefined) | 188 to 190
19 | NCCNc1ccc(-c2ccccc2)nn1 | 113 to 115
20 | CC(=O)c1ccc2[nH]c(=O)[nH]c2c1 | 264 to 266
21 | Nc1nnc(-c2ccncc2)o1 | 239 to 241
22 | CNC(=O)c1ccnc(F)c1 | 127 to 129
23 | O=C(CCl)Nc1ccc2[nH]c(C(F)(F)F)nc2c1 | 217 to 219
24 | O=C(O)c1cn(-c2cccc([N+](=O)[O-])c2)nn1 | 159 to 161
25 | O=S(=O)(NCCOc1ncc(C(F)(F)F)cc1Cl)c1c(F)cccc1F | 110 to 112

Row | Compound | melting point [°C]
26 | O=S(=O)(Cl)c1cnn(C2CCOCC2)c1 | 59 to 61
27 | CC(Oc1ccc(F)cc1Br)C(=O)O (centres undefined) | 87 to 89
28 | O=C(O)CCc1nc2c(F)cccc2[nH]1 | 185 to 187
29 | O=Cc1cc2ccccc2nc1N1CCCCC1 | 118 to 120
30 | CC(C)(C)C1CCC(c2cc(N)[nH]n2)CC1 (centres undefined) | 132 to 134
31 | COc1ccc(NS(=O)(=O)c2ccc(N)cc2)c(OC)c1 | 119 to 121
32 | Cn1c(NN)nc2ccccc2c1=O | 150 to 152
33 | O=c1nc(Cl)sc2ccccc12 | 108 to 110
34 | O=C(O)c1cc(S(=O)(=O)NCCOc2ccccc2)ccc1Cl | 169 to 171
35 | Oc1ccc(Cl)cc1C(F)(F)F | 67 to 69
36 | N#Cc1nc(Cl)ccc1Cl | 98 to 100
37 | Cc1ccc(-n2cc(C)cn2)c(N)c1 | 49 to 51
38 | O=S(=O)(Cl)N1CC2CCC1C2 (centres undefined) | 47 to 49
39 | O=C(O)c1ccc(-c2ccccc2F)o1 | 173 to 175
40 | CS(=O)(=O)N1CCCC(Cl)C1 (centres undefined) | 54 to 56
41 | CS(=O)(=O)CCC(=O)O | 100 to 102
42 | COc1cccc(-c2nonc2N)c1 | 74 to 76
43 | NCc1ccc(N2CCSCC2)cc1 | 50 to 52
44 | Cc1cccc(C)c1C(C)O (centres undefined) | 59 to 61
45 | O=C(CO)N1CCCC1 | 37 to 39
46 | Cn1c(CO)nc2cc(Cl)ccc21 | 179 to 181
47 | CC(N)c1nc(-c2ccc(Br)cc2)cs1 (centres undefined) | 77 to 79
48 | CCn1c(C(C)=O)nc2ccccc21 | 76 to 78
49 | COc1ccc(NC(N)=S)cc1 | 208 to 210
50 | CNc1ccncc1[N+](=O)[O-] | 157 to 159

Row | Compound | melting point [°C]
51 | CCOC(=O)c1ccc(N2C(=O)Cc3ccccc3C2=O)cc1 | 174 to 176
52 | COC(=O)c1c(C)cccc1S(=O)(=O)Cl | 53 to 55
53 | Brc1c[nH]c2nc(C3CCCO3)nc-2c1 (centres undefined) | 219 to 221
54 | N#CC(N)c1cccc(Cl)c1Cl (centres undefined) | 114 to 116
55 | Cc1cc(Br)cc(Cl)c1OCC(=O)O | 197 to 199
56 | Cc1cc(C=O)c(C)n1-c1cccc(F)c1 | 78 to 80
57 | COC(=O)c1ccccc1CS(=O)(=O)Cl | 85 to 87
58 | CC(C)(C)OC(=O)Nc1ccc(C(=O)O)c(Cl)c1 | 169 to 171
59 | CS(=O)(=O)Nc1ccc(F)cc1C(=O)O | 204 to 206
60 | Cc1nn(C)c(C)c1O | 186 to 188
61 | COc1cc(C=O)c(Br)cc1O | 175 to 177
62 | O=C(O)c1cnc2sc(Cc3ccccc3)cn2c1=O | 197 to 199
63 | Nc1nc(Cl)ccc1[N+](=O)[O-] | 188 to 193
64 | Cc1[nH]n(-c2ccc(Br)cc2)c(=N)c1C | 131 to 133
65 | CC1N=C(S)N(Cc2ccccc2)C1=O (centres undefined) | < 17
66 | CN(CCCN1C(=O)C=CC1=O)c1ccccc1 | 84 to 86
67 | O=S(=O)(O)c1ccc2c(c1)CCCO2 | 80 to 82
68 | COc1cccc(Cn2c(N)nc3ccccc32)c1 | 145 to 147
69 | Nc1cnn(-c2ccc(C(F)(F)F)cc2)c1 | 159 to 161
70 | CCC(C)(C)c1ccc(OCCCC(=O)O)c(C(C)(C)CC)c1 | 99 to 101
71 | Cc1ccc(O)c(C(=O)NCC(C)C)c1 | 51 to 53
72 | CC(C)CN1CCC(C(=O)O)CC1 | 75 to 77
73 | Cc1cc(C(=O)O)cc(S(=O)(=O)Cl)c1Cl | 209 to 211
74 | O=C(O)CCOc1ccccc1Cl | 115 to 117
